What is called IC50 is the midpoint of a concentration-inhibition curve.

The values that follow come from patent publication US20230348424A1, “HETEROCYCLIC COMPOUNDS AND METHODS OF USE” (Schrödinger, Inc., priority 2022, published 2023).

Sequence of SOS1:KRAS (G12C) interaction (Q07889 564-1049, stated change not applied): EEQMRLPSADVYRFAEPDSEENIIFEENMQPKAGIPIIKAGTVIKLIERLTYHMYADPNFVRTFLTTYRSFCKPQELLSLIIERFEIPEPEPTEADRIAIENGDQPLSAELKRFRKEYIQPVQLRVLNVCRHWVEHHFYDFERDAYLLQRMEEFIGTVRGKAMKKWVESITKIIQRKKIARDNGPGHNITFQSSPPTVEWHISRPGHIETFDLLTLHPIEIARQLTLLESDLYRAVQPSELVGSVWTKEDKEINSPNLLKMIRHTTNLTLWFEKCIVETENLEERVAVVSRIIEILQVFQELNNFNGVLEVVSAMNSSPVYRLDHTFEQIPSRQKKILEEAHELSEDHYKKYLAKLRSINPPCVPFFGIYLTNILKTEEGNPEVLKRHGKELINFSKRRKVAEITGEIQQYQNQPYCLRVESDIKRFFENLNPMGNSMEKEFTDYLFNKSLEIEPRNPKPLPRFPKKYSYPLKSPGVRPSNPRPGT

This assay deals with SOS1:KRAS (G12C) interaction (Homo sapiens (Human), UniProt Q07889). The assay can be described thus: SOS1 KRas(G12C) FRET Assay. To be noted: 0.5 nM His10-SOS1 (res. 564-1049), 2.5 nM GST-KRAS G12C (res. 1-169), 2 hrs at RT. The class given is binding. As for the experimental part: Inhibition of the SOS 1:KRAS interaction was measured using purified GST-tagged KRAS (res. 1-169, G12C, purified based on Hillig, et al., Proc Natl Acad Sci USA (2019); 116(7):2551-2560) and recombinant His10-SOS1 (res. 564-1049; purified based on Hillig, et al.). The final assay was performed at 20 uL with 0.5 nM SOS1 protein and 2.5 nM KRAS protein in a buffer of PBS, 0.1% BSA, 5 mM MgCh, 0.0025% Igepal, 100 mM KF, 5 mM DTT in a white 384 square well OptiPlate (PerkinElmer, Cat. 6007290). A 2x KRAS working solution was prepared in an assay buffer containing 5 nM GST-KRAS G12C and 2 nM anti-GST-Eu(K) (Cisbio, Cat. 61GSTKLA) and pre-incubated for 15 minutes at 25° C. […] The final DMSO concentration is 0.5%. Plates were incubated at RT for 2 hrs before the FRET signal was measured using Envision at emission 665 nm and 615 nm. FRET signal was converted to percentage of protein-protein interaction using the following equation:
• C: signal with compound treatment • P: signal for positive control (DMSO) • N: signal for negative control (no SOS1 added)
IC50 and Hill coefficients were obtained using Graph Pad Prism (Graph Pad software, Inc, USA) with non-linear regression analysis.
`Cc1c([C@@H](C)NC(=O)c2cn(C3CCOCC3)c(=O)cc2N[C@H]2CC[C@@]23CCCN(C)C3)cccc1C(F)(F)F` (single isomer, unassigned) [Example 296] came in with a half-maximal inhibitory concentration (IC50) of 0.252 µM.

Turning to `Cc1c([C@@H](C)NC(=O)c2cn(C3CCOCC3)c(=O)cc2N[C@@H]2CC[C@]23CCCN(C)C3)cccc1C(F)(F)F` (single isomer, unassigned) [Example 297], the 50% inhibitory concentration (IC50) amounted to 0.0334 µM.

With `Cc1c([C@@H](C)NC(=O)c2cn(C3CCOCC3)c(=O)cc2N[C@H]2CC[C@]23CCCN(C)C3)cccc1C(F)(F)F` (single isomer, unassigned) [Example 298], the IC50 came out at 0.0881 µM.

As for `Cc1c([C@@H](C)NC(=O)c2cn(C3CCOCC3)c(=O)cc2N[C@@H]2CC[C@@]23CCCN(C)C3)cccc1C(F)(F)F` (single isomer, unassigned) [Example 299], the half-maximal inhibitory concentration (IC50) worked out at 0.0513 µM. Against the preceding compound, the IC50 is about 1.7-fold lower.

`C[C@@H](NC(=O)c1cn(C2(C(F)F)CC2)c(=O)cc1N[C@@H]1CCN2CCC[C@H]2C1)c1cccc(C(F)F)c1F` (single isomer, unassigned) [Example 303] yielded a half-maximal inhibitory concentration (IC50) of 0.0182 µM.

In turn, `C[C@@H](NC(=O)c1cn(C2(C(F)F)CC2)c(=O)cc1N[C@H]1CCN2CCC[C@@H]2C1)c1cccc(C(F)F)c1F` (single isomer, unassigned) [Example 304] showed a 50% inhibitory concentration (IC50) of 0.0257 µM.

Consider `C[C@@H](NC(=O)c1cn(C2(C(F)F)CC2)c(=O)cc1N[C@H]1CCN2CCC[C@H]2C1)c1cccc(C(F)F)c1F` (single isomer, unassigned) [Example 305], for which the midpoint of inhibition, the IC50, lay at 0.0233 µM.

Compound `C[C@@H](NC(=O)c1cn(C2(C(F)F)CC2)c(=O)cc1N[C@@H]1CCN2CCC[C@@H]2C1)c1cccc(C(F)F)c1F` (single isomer, unassigned) [Example 306] had an IC50 of 0.0417 µM.

`C[C@@H](NC(=O)c1cn([C@@H]2CCOC(C)(C)C2)c(=O)cc1NC1CCN(C)CC1)c1cccc(C(F)F)c1F` (single isomer, unassigned) [Example 307] came in with an IC50 of 0.0049 µM.

Regarding `C[C@@H](NC(=O)c1cn([C@H]2CCOC(C)(C)C2)c(=O)cc1NC1CCN(C)CC1)c1cccc(C(F)F)c1F` (single isomer, unassigned) [Example 308], the IC50 stood at 0.0179 µM.

Compound `C[C@@H](NC(=O)c1cn(C2(C(F)F)CC2)c(=O)cc1N[C@H]1CCN(C)C2(CC2)C1)c1cccc(C(F)F)c1F` (single isomer, unassigned) [Example 311] returned an IC50 of 0.0097 µM.

`C[C@@H](NC(=O)c1cn(C2(C(F)F)CC2)c(=O)cc1N[C@@H]1CCN(C)C2(CC2)C1)c1cccc(C(F)F)c1F` (single isomer, unassigned) [Example 312] returned an IC50 of 0.0356 µM.

With `Cc1c([C@@H](C)NC(=O)c2cn(C3CCOCC3)c(=O)cc2NC2CCN(C)CC2)cccc1C(F)(F)F` [Example 1, (R)-N-(I-(2-methyl-3-(trifluoromethyl)phenyl)ethyl)-4-((I-methylpiperidin-4-yl)amino)-6-oxo-1-(tetrahydro-2H-pyran-4-yl)-1,6-dihydropyridine-3-carboxamide], the IC50 stood at 0.0274 µM.

For the compound `Cc1c([C@@H](C)NC(=O)c2cn(C3CCOCC3)c(=O)cc2NCC23CCCN2CCC3)cccc1C(F)(F)F` [Example 11, (R)-N-(1-(2-methyl-3-(trifluoromethyl)phenyl)ethyl)-6-oxo-4-(((tetrahydro-1H-pyrrolizin-7a(5H)-yl)methyl)amino)-1-(tetrahydro-2H-pyran-4-yl)-1,6-dihydropyridine-3-carboxamide], half-maximal inhibition (IC50) was put at 0.0376 µM.

`Cc1c([C@@H](C)NC(=O)c2cn(C3CCOCC3)c(=O)cc2NC2CCN(CC(F)(F)F)CC2)cccc1C(F)(F)F` [Example 15, (R)-N-(1-(2-methyl-3-(trifluoromethyl)phenyl)ethyl)-6-oxo-1-(tetrahydro-2H-pyran-4-yl)-4-((1-(2,2,2-trifluoroethyl)piperidin-4-yl)amino)-1,6-dihydropyridine-3-carboxamide]: half-maximal inhibition (IC50) required 0.847 µM.

`Cc1c([C@@H](C)NC(=O)c2cn(C3CCOCC3)c(=O)c(Br)c2NC2CCN(C)CC2)cccc1C(F)(F)F` [Example 17, (R)-5-bromo-N-(1-(2-methyl-3-(trifluoromethyl)phenyl)ethyl)-4-((1-methylpiperidin-4-yl)amino)-6-oxo-1-(tetrahydro-2H-pyran-4-yl)-1,6-dihydropyridine-3-carboxamide] yielded a concentration for half-maximal inhibition (IC50) of 0.717 µM.

In turn, `COc1c(NC2CCN(C)CC2)c(C(=O)N[C@H](C)c2cccc(C(F)(F)F)c2C)cn(C2CCOCC2)c1=O` [Example 18, (R)-5-methoxy-N-(1-(2-methyl-3-(trifluoromethyl)phenyl)ethyl)-4-((1-methylpiperidin-4-yl)amino)-6-oxo-1-(tetrahydro-2H-pyran-4-yl)-1,6-dihydropyridine-3-carboxamide] yielded a 50% inhibitory concentration (IC50) of 0.0778 µM.

For `Cc1c([C@@H](C)NC(=O)c2cn(C3CCOCC3)c(=O)c(C)c2NC2CCN(C)CC2)cccc1C(F)(F)F` [Example 19, (R)-5-methyl-N-(1-(2-methyl-3-(trifluoromethyl)phenyl)ethyl)-4-((1-methylpiperidin-4-yl)amino)-6-oxo-1-(tetrahydro-2H-pyran-4-yl)-1,6-dihydropyridine-3-carboxamide], the IC50 amounted to 0.347 µM.

Turning to `Cc1c([C@@H](C)NC(=O)c2cn(C3CCOCC3)c(=O)cc2N[C@H]2C[C@@H](N(C)C)C2)cccc1C(F)(F)F` [Example 27], the IC50 stood at 0.0218 µM.

Take `Cc1c([C@@H](C)NC(=O)c2cn(C3CCOCC3)c(=O)cc2NC2CN(C)C2)cccc1C(F)(F)F` [Example 28, (R)-N-(1-(2-methyl-3-(trifluoromethyl)phenyl)ethyl)-4-((1-methylazetidin-3-yl)amino)-6-oxo-1-(tetrahydro-2H-pyran-4-yl)-1,6-dihydropyridine-3-carboxamide]: the midpoint of inhibition, the IC50, lay at 0.0592 µM.

In turn, `Cc1c([C@@H](C)NC(=O)c2cn(C3CCOCC3)c(=O)cc2NCC2(F)CN(C)C2)cccc1C(F)(F)F` [Example 30, (R)-4-(((3-fluoro-1-methylazetidin-3-yl)methyl)amino)-N-(1-(2-methyl-3-(trifluoromethyl)phenyl)ethyl)-6-oxo-1-(tetrahydro-2H-pyran-4-yl)-1,6-dihydropyridine-3-carboxamide] showed an IC50 of 0.0363 µM.

The compound `Cc1c([C@@H](C)NC(=O)c2cn(C3CCOCC3)c(=O)cc2N[C@H]2CCCCN(C)C2)cccc1C(F)(F)F` [Example 35, N-((R)-1-(2-methyl-3-(trifluoromethyl)phenyl)ethyl)-4-(((S)-1-methylazepan-3-yl)amino)-6-oxo-1-(tetrahydro-2H-pyran-4-yl)-1,6-dihydropyridine-3-carboxamide] registered an IC50 of 0.044 µM.

For `Cc1c([C@@H](C)NC(=O)c2cn(C3CCOCC3)c(=O)cc2N[C@@H]2CCCCN(C)C2)cccc1C(F)(F)F` [Example 36, N-((R)-1-(2-methyl-3-(trifluoromethyl)phenyl)ethyl)-4-(((R)-1-methylazepan-3-yl)amino)-6-oxo-1-(tetrahydro-2H-pyran-4-yl)-1,6-dihydropyridine-3-carboxamide], the IC50 was 0.0308 µM.

Compound `C[C@@H](NC(=O)c1cn(C2CCOCC2)c(=O)cc1NC1CCN(C)CC1)c1cccc(C(F)F)c1F` [Example 41, (R)-N-(1-(3-(difluoromethyl)-2-fluorophenyl)ethyl)-4-((1-methylpiperidin-4-yl)amino)-6-oxo-1-(tetrahydro-2H-pyran-4-yl)-1,6-dihydropyridine-3-carboxamide] came in with a half-maximal inhibitory concentration (IC50) of 0.0078 µM.

As for `Cc1c([C@@H](C)NC(=O)c2cn(C3CCOCC3)c(=O)cc2NC2CNC2)cccc1C(F)(F)F` [Example 43, (R)-4-(azetidin-3-ylamino)-N-(1-(2-methyl-3-(trifluoromethyl)phenyl)ethyl)-6-oxo-1-(tetrahydro-2H-pyran-4-yl)-1,6-dihydropyridine-3-carboxamide], half-maximal inhibition (IC50) was put at 0.0757 µM.

In turn, `Cc1c([C@@H](C)NC(=O)c2cn(C3CCOCC3)c(=O)cc2NC2CCNC2)cccc1C(F)(F)F` (stereo partly drawn) [Example 44, N-((R)-1-(2-methyl-3-(trifluoromethyl)phenyl)ethyl)-6-oxo-4-(pyrrolidin-3-ylamino)-1-(tetrahydro-2H-pyran-4-yl)-1,6-dihydropyridine-3-carboxamide] had an IC50 of 0.0346 µM. Compared with the last compound, the IC50 is about 2.2-fold lower.

In the case of `Cc1c([C@@H](C)NC(=O)c2cn(C3CCOCC3)c(=O)cc2NCCONC(=N)N)cccc1C(F)(F)F` [Example 46, (R)-4-((2-(guanidinooxy)ethyl)amino)-N-(1-(2-methyl-3-(trifluoromethyl)phenyl)ethyl)-6-oxo-1-(tetrahydro-2H-pyran-4-yl)-1,6-dihydropyridine-3-carboxamide], the IC50 came to 0.0182 µM.

On to `C[C@@H](NC(=O)c1cn(C2(C(F)F)CC2)c(=O)cc1NC1CCN(C)CC1)c1cccc2c1OCC2(F)F` [Example 53, (R)-N-(1-(3,3-difluoro-2,3-dihydrobenzofuran-7-yl)ethyl)-1-(1-(difluoromethyl)cyclopropyl)-4-((1-methylpiperidin-4-yl)amino)-6-oxo-1,6-dihydropyridine-3-carboxamide], for which half-maximal inhibition (IC50) required 0.0156 µM.
